Consider 35 compounds from PubChem BioAssay AID2765 (Broad Institute, 2010).

Calls of active or inactive are those of the source.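 The calls were made as follows: active = half-maximal concentration for the rise in caspase light signal at or below ten times the top tested dose; inconclusive = flat fit between 30% and 70% activity, or unreliable curve fit; inactive = the rest.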 Bounds are passed on as bounds.

The experiment deals with MEF A1-2A-BIM cells, caspase 3/7 luminescence, 3 h. Kind of experiment: caspase activation in A1-2A-BIM MEF cells, dose response, A1 inhibitor project, cell-based, luminescence, retest (AID 2765).
As a reminder, the EC50 is the concentration that produces a half-maximal response. For the compound `Cc1c(Nc2nc3ccccc3nc2NS(=O)(=O)c2cccc(Cl)c2)c(=O)n(-c2ccccc2)n1C`, the EC50 is > 35 µM (inactive).

As to `O=C(O)CN1C(=O)C2C3CC(C2C1=O)C1C(c2ccccc2)c2sc(=O)[nH]c2SC31` (stereo not given), the EC50 is > 35 µM (inactive).

`O=C(O)CCN1CCc2ccccc2C1c1ccncc1` (stereo not given): the EC50 was > 35 µM (inactive).

For `COC(=O)c1ccc(NC(=O)C2CC(=O)N(c3ccc(C)cc3)C2)cc1` (stereo not given), the EC50 is > 35 µM (inactive).

Consider `COc1ccc(S(=O)(=O)Nc2c(NC3CCCCC3)c3ccccc3oc2=O)cc1OC`, for which the EC50 was > 35 µM (inactive).

Take `O=C(O)C(CCCCNS(=O)(=O)c1ccc(F)cc1)NS(=O)(=O)c1ccc(F)cc1` (stereo not given): the EC50 was > 35 µM (inactive).

Regarding `CCc1ccc(Nc2n[n+](-c3ccccc3)c(/C=C/c3ccccc3)s2)cc1`, the EC50 is 10.9 µM.

As for `Cc1cccc(-n2c(Cc3ccccc3)n[nH]c2=S)c1`, the EC50 is > 35 µM (inactive).

`CCSc1ccc(-c2nn(-c3ccccc3)cc2/C=C(/C#N)C(=O)NC)cc1`: the EC50 was > 35 µM (inactive).

Turning to `Cc1nc(NN)c2c3c(sc2n1)COC(C)(C)C3`, the EC50 is > 35 µM (inactive).

Regarding `O=C(CC1CC2CCC1C2)N1CCN(S(=O)(=O)c2ccccc2C(F)(F)F)CC1` (stereo not given), the EC50 was > 35 µM (inactive).

As to `CSCCC(NS(=O)(=O)c1ccc(C)cc1)C(=O)NCCc1c[nH]c2ccccc12` (stereo not given), the EC50 is > 35 µM (inactive).

As to `O=C(c1ccco1)N1CCN(C(=O)C2CCN(S(=O)(=O)c3cccs3)CC2)CC1`, the EC50 is > 35 µM (inactive).

Consider `CN(CC(=O)O)S(=O)(=O)c1ccc2oc3ccccc3c2c1`, for which the EC50 was > 35 µM (inactive).

Regarding `COc1cc(/C=C(/C#N)c2nc3ccccc3[nH]2)ccc1OCC(=O)Nc1ccccc1C(C)C`, the EC50 was 14.6 µM.

Consider `CN(C(=O)CSc1nnc(C(F)(F)F)n1N)C1CCS(=O)(=O)C1` (stereo not given), for which the EC50 was > 35 µM (inactive).

Consider `O=C(c1ccccc1)c1n[nH]c(-c2ccccc2)cc1=O`, for which the EC50 was > 35 µM (inactive).

Turning to `CCc1nnc(NC(=O)c2ccc(NC(=O)C(C)C)cc2)s1`, the EC50 was > 35 µM (inactive).

For `CC(C)CCNC(=O)c1cc(-c2ccncc2)nc2ccc(S(=O)(=O)N3CCOCC3)cc12`, the EC50 was > 35 µM (inactive).

`Cc1cccc(NC(=S)NCCc2ccc(F)cc2)c1C`: the EC50 is > 35 µM (inactive).

In the case of `Cc1c(CCCC(=O)O)sc(N)c1C(=O)c1cccc(C(F)(F)F)c1`, the EC50 is > 35 µM (inactive).

For `O=C(NC1CCCC1)c1cccc2c1C(=O)c1ccc(/C=C/c3ccccc3)cc1S2(=O)=O`, the half-maximal effective concentration (EC50) is 10.6 µM.

On to `COC(=O)c1ccc2c(c1)C(C)(C)C(/C=C/c1ccccc1O)=[N+]2C`, for which the EC50 was 12.6 µM.

As for `CCCN1CCN(CCCNC(=O)CCCn2nc(C)c3sc4ccccc4c3c2=O)CC1`, the EC50 was > 35 µM (inactive).

Regarding `O=C(CNC(=O)c1ccc(Br)cc1)NC1CC1`, the EC50 is > 35 µM (inactive).

Regarding `COc1ccccc1NC(=O)CC1COc2ccccc2O1` (stereo not given), the EC50 was > 35 µM (inactive).

Turning to `N#CN=C1SCCS1`, the EC50 was > 35 µM (inactive).

Turning to `O=S1(=O)C=C(Sc2nc3cc(Cl)ccc3o2)c2ccccc21`, the EC50 was > 35 µM (inactive).

Turning to `CCOC(=O)Nc1nc(-c2ccccc2)c(C(=O)c2ccccc2)s1`, the EC50 is > 35 µM (inactive).

On to `COc1cc(/C=C/[N+](=O)[O-])ccc1OC(=O)c1cccnc1`, for which the EC50 is 12.5 µM.

Turning to `CC(C)(C)C1C/C(=C/c2ccccn2)C(=O)/C(=C/c2ccccn2)C1` (stereo not given), the EC50 was 8.46 µM.

In the case of `COc1ccc2nc(SCC(=O)N3CCN(c4ccc(F)cc4)CC3)c(C#N)cc2c1`, the EC50 was > 35 µM (inactive).

As to `O=C(N/N=C/c1ccccc1O)C1CC(=O)N(c2ccc(F)cc2)C1` (stereo not given), the EC50 was > 35 µM (inactive).

As for `Cc1ncc([N+](=O)[O-])n1Cc1cccc2ccccc12`, the EC50 is > 35 µM (inactive).

On to `COc1cc(-c2nnc(NC(=O)CCS(=O)(=O)c3ccc(F)cc3)o2)cc(OC)c1OC`, for which the EC50 is > 35 µM (inactive).
